# Source: publication PMC9820316, “Novel Arylpiperazine Derivatives of Salicylamide with α1-Adrenolytic Properties Showed Antiarrhythmic and Hypotensive Properties in Rats” (International Journal of Molecular Sciences, 2022)
# Marks after values point to notes of the source that are not given here.
# Tests used:
# [1] = test system: aconitine-induced arrhythmia model in rats; assay: Prophylactic antiarrhythmic activity in aconitine-induced arrhythmia; assay type: in vivo, rat; settings: 5 mg/kg iv 15 min before aconitine 20 μg/kg; number of animals with event
# Experimental: (§1) The animals were anesthetized with thiopental (75 mg/kg ip). Depending on the model, either adrenaline, aconitine, or calcium chloride was used as an arrhythmogen. Adrenaline and aconitine were administered iv at a dose of 20 µg/kg, whereas calcium chloride was administered at a dose of 140 mg/kg to induce heart rhythm disturbances. The tested compounds were injected iv 15 min before the arrhythmogen. Aspel ASCARD apparatus (standard II lead, with the tape speed 50 mm/s and voltage calibration 1 mV = 1 cm) was used for ECG measurements. […] The ED50 was calculated using the method of Litchfield and Wilcoxon.
# α1-adrenergic receptors = assay: α1-adrenoceptor radioligand binding assay ([3H]-prazosin, rat cortex); settings: rat cortex tissue, mean ± SEM
# Experimental: The α1- and α2-adrenoceptor radioligand binding assays were performed on the rat cerebral cortex using previously described methods. […] The brains were homogenized using the ULTRA-TURRAX homogenizer in 10 mL of an ice-cold 50 mM Tris-HCl buffer (pH 7.6). The homogenates were centrifuged at 20,000× g for 20 min (0–4 °C). Subsequently, the cell pellet was resuspended in the Tris–HCl buffer and centrifuged again. Radioligand binding assays were carried out in plates (MultiScreen/Millipore). The final incubation mixture, with a volume of 300 μL, consisted of 240 μL of the tissue suspension, 30 μL of the radioligand solution, and 30 μL of the buffer containing 7–8 concentrations of the studied compounds. In order to measure the unspecific binding, 10 μM phentolamine (for [^3H]-prazosin) or 10 μM clonidine (for [^3H]-clonidine) were utilized. The incubation was completed by rapid filtration through Whatman GF/C filters using a vacuum manifold (Millipore). The filters were then washed twice with the assay buffer and placed in scintillation vials with a liquid scintillation cocktail. Radioactivity was measured in a WALLAC 1409 DSA liquid scintillation counter (Perkin Elmer, USA). All the assays were performed in duplicates, and the inhibitory constants (Ki) were calculated.
# [2] = test system: pressor response to methoxamine in rats; assay: Influence on blood vasopressor response to methoxamine in rats; assay type: in vivo, rat; settings: 2.5 mg/kg iv, methoxamine 150 μg/kg before and 5 min after compound
# Experimental: The experiment was performed to establish the effect of the studied derivatives on the pressor response to methoxamine (150 µg/kg, iv), according to the methods described previously. Normotensive Wistar rats were anesthetized with thiopental (75 mg/kg ip). The right carotid artery was cannulated with a polyethylene tube filled with heparin solution using a Datamax apparatus (Columbus Instruments, Columbus, OH, USA). After a 15-min stabilization period, the pressor response to methoxamine before (control) and 5 min after the administration of the tested compounds was measured (Figure 4B). The tested compounds were administered at the lowest hypotensive dose.
# [3] = test system: adrenaline-induced arrhythmia model in rats; assay: Prophylactic antiarrhythmic activity in adrenaline-induced arrhythmia; assay type: in vivo, rat; settings: for Blocks / Bradycardia / Extrasystoles / Mortality: number of animals with event
# Experimental: as §1
# [4] = test system: calcium chloride-induced arrhythmia model in rats; assay: Prophylactic antiarrhythmic activity in calcium chloride-induced arrhythmia; assay type: in vivo, rat; settings: 5 mg/kg iv 15 min before calcium chloride 140 mg/kg; number of animals with event
# Experimental: as §1
# normotensive rats = assay: Influence on blood pressure in the normotensive rats; assay type: in vivo, rat; settings: for DBP—diastolic blood pressure / SBP—systolic blood pressure: mean ± SD
# Experimental: The experiment was performed according to the method described earlier. Normotensive Wistar rats were anesthetized with thiopental (75 mg/kg ip). The right carotid artery was cannulated with a polyethylene tube filled with heparin solution, using a Datamax apparatus (Columbus Instruments, Columbus, OH, USA). After 15 min of the stabilization period, the studied compounds were administered iv, and their effect on systolic and diastolic blood pressure was evaluated (Figure 4A).
# [5] = 0.1 mg/kg iv 15 min before adrenaline 20 μg/kg
# [6] = 0.25 mg/kg iv 15 min before adrenaline 20 μg/kg
# [7] = 0.5 mg/kg iv 15 min before adrenaline 20 μg/kg
# [8] = 1.0 mg/kg iv, 0 min (before administration)
# [9] = 2.5 mg/kg iv, 0 min (before administration)
compound,measurement,setting,value
"COc1ccccc1N1CCN(Cc2cccc(COc3ccccc3C(N)=O)c2)CC1.Cl [JJGW11, 2-[(3-{[4-(2-metoxyphenyl)piperazin-1-ylo]methyl}phenyl)metoxy}benzamide hydrochloride]",Blocks,[1],6/6
same,Bradycardia,[1],6/6
same,Extrasystoles,[1],5/6
same,Fibrillations,[1],4/6
same,Mortality,[1],6/6
same,Adrenergic Receptors—pKi α1,α1-adrenergic receptors,8.07 ± 0.04
same,attenuation of the methoxamine pressor response,[2],99%
same,Blocks,[3]; [5],4/5
same,Bradycardia,[3]; [5],2/5
same,Extrasystoles,[3]; [5],4/5
same,Mortality,[3]; [5],1/5
same,Blocks,[3]; [6],6/6
same,Bradycardia,[3]; [6],0/6
same,Extrasystoles,[3]; [6],6/6
same,Mortality,[3]; [6],0/6
same,Blocks,[3]; [7],1/6
same,Bradycardia,[3]; [7],2/6
same,Extrasystoles,[3]; [7],3/6
same,Mortality,[3]; [7],1/6
same,ED50,"[3]; prophylactic, iv 15 min before adrenaline 20 μg/kg, confidence limits in brackets (Litchfield and Wilcoxon)",0.19 (0.08–0.45) mg/kg
same,Blocks,[4],6/6
same,Bradycardia,[4],6/6
same,Extrasystoles,[4],5/6
same,Fibrillations,[4],6/6
same,Mortality,[4],6/6
same,DBP—diastolic blood pressure,normotensive rats; [8],86.8 ± 7.6 mmHg
same,SBP—systolic blood pressure,normotensive rats; [8],118.2 ± 9.7 mmHg
same,DBP—diastolic blood pressure,"normotensive rats; 1.0 mg/kg iv, 5 min",81.3 ± 14.4 mmHg
same,SBP—systolic blood pressure,"normotensive rats; 1.0 mg/kg iv, 5 min",116.2 ± 8.5 mmHg
same,DBP—diastolic blood pressure,"normotensive rats; 1.0 mg/kg iv, 10 min",82.0 ± 10.2 mmHg
same,SBP—systolic blood pressure,"normotensive rats; 1.0 mg/kg iv, 10 min",113.8 ± 9.2 mmHg
same,DBP—diastolic blood pressure,"normotensive rats; 1.0 mg/kg iv, 20 min",82.3 ± 8.8 mmHg
same,SBP—systolic blood pressure,"normotensive rats; 1.0 mg/kg iv, 20 min",111.5 ± 10.4 mmHg
same,DBP—diastolic blood pressure,"normotensive rats; 1.0 mg/kg iv, 30 min",83.0 ± 8.2 mmHg
same,SBP—systolic blood pressure,"normotensive rats; 1.0 mg/kg iv, 30 min",111.0 ± 10.8 mmHg
same,DBP—diastolic blood pressure,"normotensive rats; 1.0 mg/kg iv, 40 min",82.5 ± 8.4 mmHg
same,SBP—systolic blood pressure,"normotensive rats; 1.0 mg/kg iv, 40 min",110.0 ± 11.5 mmHg
same,DBP—diastolic blood pressure,"normotensive rats; 1.0 mg/kg iv, 50 min",81.7 ± 8.3 mmHg
same,SBP—systolic blood pressure,"normotensive rats; 1.0 mg/kg iv, 50 min",110.3 ± 10.7 mmHg
same,DBP—diastolic blood pressure,"normotensive rats; 1.0 mg/kg iv, 60 min",81.5 ± 8.4 mmHg
same,SBP—systolic blood pressure,"normotensive rats; 1.0 mg/kg iv, 60 min",110.8 ± 10.6 mmHg
same,DBP—diastolic blood pressure,normotensive rats; [9],88.7 ± 10.4 mmHg
same,SBP—systolic blood pressure,normotensive rats; [9],116.7 ± 8.1 mmHg
same,decrease of the diastolic blood pressure,"normotensive rats; 2.5 mg/kg iv, 60th min after administration",18%
same,DBP—diastolic blood pressure,"normotensive rats; 2.5 mg/kg iv, 5 min",84.7 ± 10.0 mmHg
same,SBP—systolic blood pressure,"normotensive rats; 2.5 mg/kg iv, 5 min",108.5 ± 8.7 ^b mmHg
same,DBP—diastolic blood pressure,"normotensive rats; 2.5 mg/kg iv, 10 min",81.2 ± 8.6 mmHg
same,SBP—systolic blood pressure,"normotensive rats; 2.5 mg/kg iv, 10 min",103.3 ± 9.5^c mmHg
same,DBP—diastolic blood pressure,"normotensive rats; 2.5 mg/kg iv, 20 min",78.5 ± 10.1 mmHg
same,SBP—systolic blood pressure,"normotensive rats; 2.5 mg/kg iv, 20 min",102.3 ± 10.0 ^c mmHg
same,DBP—diastolic blood pressure,"normotensive rats; 2.5 mg/kg iv, 30 min",77.3 ± 9.9 mmHg
same,SBP—systolic blood pressure,"normotensive rats; 2.5 mg/kg iv, 30 min",101.3 ± 9.2 ^b mmHg
same,DBP—diastolic blood pressure,"normotensive rats; 2.5 mg/kg iv, 40 min",79.2 ± 10.5 mmHg
same,SBP—systolic blood pressure,"normotensive rats; 2.5 mg/kg iv, 40 min",103.0 ± 10.3 ^a mmHg
same,DBP—diastolic blood pressure,"normotensive rats; 2.5 mg/kg iv, 50 min",77.7 ± 12.9 mmHg
same,SBP—systolic blood pressure,"normotensive rats; 2.5 mg/kg iv, 50 min",103.5 ± 12.9 ^b mmHg
same,DBP—diastolic blood pressure,"normotensive rats; 2.5 mg/kg iv, 60 min",73.0 ± 16.2 ^a mmHg
same,SBP—systolic blood pressure,"normotensive rats; 2.5 mg/kg iv, 60 min",100.2 ± 15.9 ^b mmHg
same,decrease of the systolic blood pressure,"normotensive rats; 2.5 mg/kg iv, between the 5th and 60th min after injection",7–14%
